The source of these data is PMC6746686, “Physicochemical Profiling of Baicalin Along with the Development and Characterization of Cyclodextrin Inclusion Complexes” (AAPS PharmSciTech, 2019).

In brackets after ≈: the same amount, converted by molar mass. Read-outs that look alike come from different tables or passages of the source.

Data set [1] can be described thus: NMR-pH titrations (acid dissociation constants, species distribution). In kind it is physicochemical. The following applies: for pKa: aqueous solution, 95% (v/v) H2O and 5% (v/v) D2O; for mole fraction of the monoanionic form ([H2B]−): calculated from pKa values. As for the experimental part:
NMR-pH titrations were performed on a Varian VNMRS spectrometer (600 MHz for ^1H). Spectra were recorded at 25°C. Titrations were carried out in solutions containing 95% (v/v) H2O and 5% (v/v) D2O, with the addition of small amounts of 0.1 M HCl and NaOH. One molar NaOH and solid NaOH crystals were also used to achieve highly basic pH values. The ionic strength was kept at 0.15 M by the presence of NaCl. The concentration of baicalin and its methyl ester was 1.0 × 10^−3 M and ascorbic acid was used in large excess (5.0 × 10^−3 M) to prevent the oxidation of the studied catechol molecules in alkaline solutions. The sample volume was 600 μl. NMR spectra were referenced to the internal standard DSS (sodium 3-(trimethylsilyl)-1-propanesulfonate). The water signal was suppressed by presaturation. Spectra were processed with VNMRj 3.2a software. pH values were read on a Metrohm 2.780.0010 precision pH meter with a 6.0258.600 Unitrode glass Pt 1000 electrode (Metrohm AG, Herisau, Switzerland). The pH-potentiometric system was calibrated using pH 1.68, 4.01, 6.87, 9.18 aqueous buffer solutions. In highly basic solutions, pH was measured by NMR-pH indicator molecules as well to avoid the uncertainty of the glass electrode pH-meter readings in such solutions [24]. The concentration of these pH indicators was 1.0 mM. For the analysis of NMR titration curves of proton chemical shifts versus pH, the software Origin Pro 8 (OriginLab Corp., Northampton,MA, USA) was used.
In baicalin, there are 12 protons connected to carbon atoms, but in ^1H NMR spectra, only the singlets of H8 and H3 on ring A and the doublet of the aromatic H2’,6′ protons can be easily assigned, while the other aromatic protons occur in complex spectrum of multiplets. The protons of the monosaccharide unit overlap with each other and with the signals of the antioxidant ascorbic acid. The suppression of the large water signal also interferes with the observation of certain NMR signals. Thus, during the NMR-pH titration, we followed the above-mentioned three chemical shift signal sets.
Since protonation processes are instantaneous on the NMR chemical shift time scale, the observed chemical shift (δ^obsd) of a certain nucleus can be expressed as a weighted average of chemical shifts of the non-, mono-, di- and triprotonated forms of baicalin (B):2 δ^obsd=δB^3‐xB^3‐+δHB^2‐xHB^2‐+δH2B^−xH2B^−+δH3BxH3B where weighting factors are mole fractions that can be expressed in terms of stepwise protonation macroconstants and the actual hydrogen ion concentration. For example, xH2B^− is:3 xH2B^−=K1K2H^+^2/1+K1H^++K1K2H^+^2+K1K2K3H^+^3
Combining and rearranging Eqs. (2) and (3) yield Eq. (4) that can be directly fitted to the ^1H-NMR titration curve of each nucleus observed.4 δ^obsd=δB^3‐+δHB^2‐K1H^++δH2B^−K1K2H^+^2+δH3BK1K2K3H^+^3/1+K1H^++K1K2H^+^2+K1K2K3H^+^3
The logarithms of the obtained protonation constants correspond to the negative logarithms of dissociation constants, namely pKa1 = logK3, pKa2 = logK2 and pKa3 = logK1 [28].

The nature of data set [2]: Distribution coefficient measurements by the stir-flask method (octanol/water). In kind it is physicochemical. As for the experimental part: The distribution coefficients were calculated from the absorbance of the molecules before and after partitioning at several octanol/water phase ratios. For the pH control, a pH 7.40 phosphate buffer and a standardized HCl solution were used, with an ionic strength of 0.15 M in both cases. The pH of the phosphate buffer was measured using a Metrohm 6.0204.100 combined pH glass electrode and a Metrohm 780 pH meter. The concentration change of baicalin was followed by UV-absorbance measurements. […] Then, the two phases were intensively stirred for 2 h in thermostated double-walled glass cells at constant temperature (25 ± 0.1°C). After separation of the equilibrated phases and centrifugation, the concentration of baicalin was determined by UV spectrophotometry (Perkin-Elmer Lambda 15) at several values at 279 nm (λmax). The distribution coefficients were calculated from the absorbance of baicalin before and after partitioning. […]
For baicalin, the pH-dependent distribution coefficient is the sum of four products:5 DpH=ΣxiPi=xB^3‐PB^3‐+xHB^2‐PHB^2‐+xH2B^−PH2B^−+xH3BPH3B where xi mole fractions are the pH-dependent quantities, while Pi parameters are the pH-independent ones. […]
The mole fraction data can be calculated similarly as shown in Eq. (3); thus, the partition coefficient of the anionic form can be obtained. […]

A short description of data set [3]: Thermodynamic solubility by saturation shake-flask method. Format: physicochemical. The following applies: 37°C. As for the experimental part: A total of 0.94 g of 1 M HCl and 0.35 g of NaCl were diluted and dissolved to 1000 ml with distilled water and used as simulated gastric fluid (SGF) with pH 1.2. This medium served as solvent for the measurement of intrinsic solubility of baicalin.
A total of 250 ml of 0.2 M […] and 77 ml of 0.2 M NaOH were homogenized and diluted to 1000 ml with distilled water. This medium served as simulated intestinal fluid (SIF) with pH 6.8.
Blank buffer of FaSSGF pH 1.6 (1.99 g NaCl dissolved in 900 ml distilled water, adjusted the pH to 1.6 with 1 M HCl and filled to 1000 ml with distilled water) and phosphate buffer pH 6.5 (0.42 g NaOH pellets + 3.95 g NaH2PO4 monohydrate + 6.19 g NaCl dissolved in 900 ml distilled water, adjusted the pH to 6.5 with either 1 M NaOH or 1 M HCl and filled to 1000 ml with distilled water) were prepared as stock solutions.
FaSSGF was produced from blank buffer of FaSSGF pH 1.6, which was completed by 0.08 mM sodium taurocholate, 0.02 mM lecithin, 0.1 mg/ml pepsin and has osmolality of 120 ± 2.5 mOsmol/kg. To obtain the FaSSIF medium, 100 ml of blank phosphate buffer (pH 6.5) was made up by 3 mM sodium taurocholate and 0.75 mM lecithin. FaSSIF has an osmolality of 270 ± 10 mOsmol/kg.
The thermodynamic solubility of baicalin in various media was determined by saturation shake-flask method based on the method of Baka et al.. Briefly, 10 mg of baicalin was added to 5 ml of each solvent in sealed vials. All samples were stirred (approx. 500 rpm) and thermostated (IKA RT-5 power heatable magnetic stirrer, IKA Work Inc., USA) at 37 ± 0.5°C for 24 h allowing it to achieve thermodynamic equilibrium. After this period, 24 h of sedimentation cycle was adopted without stirring at 37 ± 0.5°C. To improve the efficacy of phase-separation, the saturated supernatant of samples was centrifuged at 14,000 rpm for 15 min (Herolab MicroGen 16, Herolab GmbH, Wiesloch, Germany). The aliquots (250 μl) taken for solubility experiments were suitably diluted with blank buffers and the absorbance was measured at λ = 316 nm by UV spectroscopy (Agilent 8453 UV-Visible Spectrophotometer, Agilent Technologies Ltd., USA). […] Ideally, λmax selected for the analysis of drug should not show any interference due to solvents and excipients present in the dissolution medium. […] In the solubility study, thus, λmax 316 nm was selected for the quantification of baicalin. […] All experiments were repeated three times and results were calculated from the linear calibration curve of baicalin in each media. Data are expressed as mean ± SD (μg/ml).

Data set [4] is described as follows: Stability in alkaline solution observed by NMR. In kind it is physicochemical. The text has this:
Baicalin has three acidic functional moieties, one carboxyl and two phenolic hydroxyl groups. Proton transfer processes can be regarded either from the aspect of dissociation or association. Because of the acidic nature of baicalin, these processes will be characterized here in terms of acid dissociation constants (Ka). Carboxylic acids are typically orders of magnitude stronger than phenols. The determination of baicalin dissociation constants is hampered by its poor water solubility and sensitivity of oxidation of the catechol structure on its A ring. The acid/base properties of baicalin have been investigated earlier, resulting in pKa1, pKa2 and pKa3 values of 5.05, 7.6 and 10.1, respectively. […] We decided to undertake the characterization of baicalin by NMR-pH titrations, where the molecule was protected from oxidation by the antioxidant ascorbic acid up to pH ≈ 13.
NMR-pH titrations were performed on a Varian VNMRS spectrometer (600 MHz for ^1H). Spectra were recorded at 25°C. […] Spectra were processed with VNMRj 3.2a software. pH values were read on a Metrohm 2.780.0010 precision pH meter with a 6.0258.600 Unitrode glass Pt 1000 electrode (Metrohm AG, Herisau, Switzerland). […] In highly basic solutions, pH was measured by NMR-pH indicator molecules as well to avoid the uncertainty of the glass electrode pH-meter readings in such solutions [24]. […]

Details of data set [5]: method as in PMID 19722585. As to conditions: cited from earlier work.
On the set-up of data set [6]: method as in PMID 19722585. The following applies: reported as "1.27 (pH 7)"; cited from earlier work.
On the set-up of data set [7]: method as in PMID 26579386. The following applies: cited from earlier work.
Details of data set [8]: method as in PMID 16107266. The following applies: cited from earlier work.
Where [9] appears, read: NMR-pH titration, 25°C, ionic strength 0.15 M, ascorbic acid as antioxidant.
Setting [10] is: UV-pH titration, called highly dubious by the authors.

With `COC(=O)[C@H]1O[C@@H](Oc2cc3oc(-c4ccccc4)cc(=O)c3c(O)c2O)[C@H](O)[C@@H](O)[C@@H]1O` [Baicalin methyl ester], in data set [1] (setting [9]), the “pKa1 (acid dissociation constant)” value was found to be 8.78 and the “pKa2 (acid dissociation constant)” value was greater than 14.

Consider `O=C(O)[C@H]1O[C@@H](Oc2cc3oc(-c4ccccc4)cc(=O)c3c(O)c2O)[C@H](O)[C@@H](O)[C@@H]1O` [Baicalin, 7-D-glucuronic acid-5,6-dihydroxyflavone], for which the pKa in data set [1] (NMR-pH titration, 25°C, ionic strength 0.15 M, ascorbic acid as antioxidant, read-out: pKa1 (acid dissociation constant)) was 4.21; in data set [1] (NMR-pH titration, 25°C, ionic strength 0.15 M, ascorbic acid as antioxidant, read-out: pKa2 (acid dissociation constant)), 8.56; in data set [1] (NMR-pH titration, 25°C, ionic strength 0.15 M, ascorbic acid as antioxidant, read-out: pKa3 (acid dissociation constant)), greater than 14. Also, the “mole fraction of the monoanionic form ([H2B]−)” value in data set [1] (pH 6.8 SIF) is 98.0%; in data set [1] (pH of blood (pH 7.40)), 93.5%. In data set [1] (pH 7.40, calculated from pKa values), the “relative concentration of the dianionic form (HB2−)” value is reported as 6.5%. The “difference between the lipophilicity of the neutral and the anionic form” value in data set [2] is listed as 2.56 log unit. Moreover, the logD at 2 h in data set [2] (standardized 0.15 M HCl solution, 25°C, SD in brackets, read-out: log D (characterizes the log P of the neutral form)) amounted to 1.28. The solubility (thermodynamic) at 24 h in data set [3] (distilled water (Aqua dest.), read-out: Thermodynamic solubility) is 67 µg/mL (≈ 150 µM); in data set [3] (fassgf or other biorelevant, thermodynamic from solid, pH 1.6 FaSSGF, read-out: Thermodynamic solubility) it was 33.2 µg/mL (≈ 74.4 µM); in data set [3] (simulated gastric fluid (SGF), simulated gastric fluid, thermodynamic from solid, pH 1.2 SGF, read-out: Thermodynamic solubility (intrinsic solubility)) it was 11.6 µg/mL (≈ 26.1 µM); in data set [3] (simulated intestinal fluid (SIF), fassgf or other biorelevant, thermodynamic from solid, pH 6.8 SIF, read-out: Thermodynamic solubility) it was 10500 µg/mL (≈ 23500 µM); in data set [3] (thermodynamic from solid, pH 6.5 FaSSIF, read-out: Thermodynamic solubility), 8110 µg/mL (≈ 18200 µM). For the same molecule, the “stability in alkaline solution (decomposition)” value in data set [4] (NMR investigations, without antioxidant) was “rapidly decomposes above pH 9”. For the same molecule, the “stability in alkaline solution (oxidation)” value in data set [4] (in the presence of a large excess of ascorbic acid) is “rapid oxidation of baicalin above pH 13”. The pKa2 in data set [5] (setting [10]) was 7.6. Further, in data set [5] (setting [10]), the pKa3 is listed as 10.1. Further, the pKa1 in data set [5] (earlier investigation) is given as 5.05. The log partition coefficient (log P) in data set [6] is 1.27. In addition, the water solubility in data set [7] was 54 µg/mL (≈ 121 µM). For the same molecule, the absolute bioavailability in data set [8] is reported as 2.2 ± 0.2%.

As usually defined, the thermodynamic solubility is solubility found after equilibrating the solid with the medium. By log P is commonly meant a log measure of how a compound divides between an organic and an aqueous phase.
